The values below come from article PMC5577105, “A New Chimeric Natriuretic Peptide, CNAAC, for the Treatment of Left Ventricular Dysfunction after Myocardial Infarction” (Scientific Reports, 2017).

Series [1] concerns myocardial infarction rats (left anterior descending coronary artery ligation). The experiment in a line: Serum humoral factors by ELISA after myocardial infarction. The following applies: NP 20 nmol/kg i.p. every 2 days for 4 weeks, rat ELISA, n = 6. The format is in vivo. The method, then: (§1) 0.85% NaCl; 20 nmol/kg·2d; n = 6). The Sham and MI animal model were established as described by Johns TN et al.[24], [25] […] The chest was closed immediately. Only a thoracotomy and closure were performed in the sham group. From the day of surgery, 0.85% NaCl or NPs (20 nmol/kg) were administered to these groups (i.p), one injection every two days and lasted for four weeks. Four weeks later, the cardiac function was measured by Doppler echocardiography under anesthesia with pentobarbital sodium (40 mg/kg i.p.). A 12 MHz linear probe (Vevo2100, VisualSonics, Inc., CAN) was used to perform the transthoracic echocardiography. Left ventricular (LV) ejection fraction (EF), LV fraction shortening (FS), LV end diastolic diameter (LVEDd), and left ventricular end systolic diameter (LVESd) were measured. All examinations were performed in a blinded state. Blood samples were centrifuged (4000 rpm, 15 min) and the serum was separated. Serum BNP, Ang II, ALD, ET-1, cGMP levels were detected with rat ELISA kits (Lianshuo, Shanghai, China).

Series [2] shares this test system. The experiment in a line: Cardiac hemodynamics after myocardial infarction. The format is in vivo, rat. The following applies: MI rats, NP 20 nmol/kg i.p. every 2 days for 4 weeks, anesthetized, LV catheter, mean ± SEM, n = 6; for +dp/dtmax / −dp/dtmax: in mmHg/s. The method, then:
as §1, with “The” for “0.85% NaCl; 20 nmol/kg·2d; n = 6). The”, “state.” for “state. Blood samples were centrifuged (4000 rpm, 15 min) and the serum was separated. Serum BNP, Ang II, ALD, ET-1, cGMP levels were detected with rat ELISA kits (Lianshuo, Shanghai, China).”
(§2) The day after echocardiography was performed; rats in each group were weighed and anesthetized via a peritoneal injection of pentobarbital sodium (40 mg/kg i.p.). Supplemental doses of sodium pentobarbital were given when needed to maintain uniform anesthesia. A micro catheter was inserted into the left ventricle through the right […], and left ventricular systolic pressure (LVSP), left ventricular end diastolic pressure (LVEDP), and ± dp/dtmax were recorded by the BL-420F BioData Acquisition & Analysis Systems (TME Technology Co, Ltd, Chengdu, China). At the end of the experiment, blood was sampled and the following parameters were recorded: heart weight (HW), left ventricle weight (LVW), and lung weight (LW).

For series [3] the test system is unchanged. The series is described as follows: Tissue weights / cardiac hypertrophy after myocardial infarction. The format is in vivo, rat. The following applies: MI rats, NP 20 nmol/kg i.p. every 2 days for 4 weeks; mean ± SEM, n = 6. On the procedure:
as §1, with “The” for “0.85% NaCl; 20 nmol/kg·2d; n = 6). The”, “state.” for “state. Blood samples were centrifuged (4000 rpm, 15 min) and the serum was separated. Serum BNP, Ang II, ALD, ET-1, cGMP levels were detected with rat ELISA kits (Lianshuo, Shanghai, China).”
as §2

The conditions of series [4]: rat, in vivo, iv.
Description: To determine the metabolic status of NPs in circulation, blood was collected from rats after a bolus injection of NPs. Rats were anesthetized with pentobarbital sodium (40 mg/kg i.p). One microcatheter was inserted into the left jugular vein to administer NPs, and another one was inserted into the right carotid artery to collect blood. After the surgery was completed, rats were allowed to stabilize for 15 min. Human ANP, CNP, VNP, or CNAAC at a concentration of 40 nmol/kg was administered in a bolus fashion (0.1 ml). Blood (0.5 ml) was sampled 5, 10, 20, and 30 min after the bolus injection. The samples from the plasma were analyzed using LT-20AT High-Performance-Liquid-Chromatography (HPLC) (Shimadzu, Tokyo, Japan). A linear gradient (Buffer A: acetonitrile with 0.05% trifluoroacetic acid; Buffer B: double distilled water with 0.05% trifluoroacetic acid)[36] was used for both analyses to separate peptides on an Inertsil OSD-3 (250 mm × 4.6 mm, 5 µm) chromatographic column (Shimadzu, Tokyo, Japan) and a Water Quatro-premier tandem quadrupole mass spectrometry and Alliance 2695 chromatographic system (Waters, Milford, Massachusetts, USA). Peak areas have been calculated with the Masslynx 4.1 software from Waters. […] Each experiment was conducted in duplicate, whereby duplicates are defined as two different vials.
On the set-up of series [5]: method as in PMID 18205700. The following applies: in circulation; cited from earlier work.

In the case of C-type natriuretic peptide [CNP], in series [1], the “serum level of Ang II, change vs. MI group” value was “decreased”; the “serum level of ET-1, change vs. MI group” value is “decreased”; the “serum level of cGMP, change vs. MI group” value is on record as “increased”. For the same substance, in series [2], the Heart rate was 443 ± 21 bpm, the LVEDP is listed as 6.5 ± 1.5 mm Hg, the LVSP is 122.7 ± 4.8 mm Hg and the “+dp/dtmax” value is given as 4025 ± 289. Moreover, the “−dp/dtmax” value in series [2] is on record as 3917 ± 250. In addition, in series [3], the “BW (body weight)” value was 347 ± 10 g, the “HW (heart weight)” value is on record as 1072 ± 84 mg, the “LVW (left ventricular weight)” value worked out at 492 ± 24 mg and the “LW (lung weight)” value is recorded as 2190 ± 149 mg.

For the substance atrial natriuretic peptide [ANP], in series [4], the “NP remaining at 10 min” value was 32.7%, the “NP remaining at 20 min” value is “Less than 10%” and the “NP remaining at 30 min” value is given as “completely degraded”. For the same substance, in series [1], the “serum level of ALD, change vs. MI group” value is reported as “decreased”; the “serum level of Ang II, change vs. MI group” value is listed as “decreased”; the “serum level of ET-1, change vs. MI group” value was “decreased”; the “serum level of cGMP, change vs. MI group” value is on record as “increased”. Moreover, in series [2], the Heart rate is 437 ± 15 bpm, the LVEDP is reported as 7.2 ± 1.8 mm Hg, the LVSP is on record as 112.5 ± 3.9 mm Hg and the “+dp/dtmax” value turned out to be 3651 ± 320. The “−dp/dtmax” value in series [2] is 3424 ± 453. For the same substance, in series [3], the “BW (body weight)” value was found to be 362 ± 8 g, the “HW (heart weight)” value is given as 1010 ± 39 mg, the “LVW (left ventricular weight)” value is on record as 492 ± 24 mg and the “LW (lung weight)” value was determined as 2094 ± 188 mg.

In the case of brain natriuretic peptide [BNP], the circulating half-life result in series [5] was “approximately 23 min”.
